Source: article PMC6094102 (Proceedings of the National Academy of Sciences of the …, 2018)
Like-named read-outs stand apart in the source and are kept apart here.

Legend:
[1] = test system: MM.1S.BR cells; assay: Cell viability of bortezomib-resistant myeloma cells; format: cell-based
[2] = test system: RPMI8226.BR cells; assay: as above; format: cell-based
[3] = molecular target: T1, DYRK2 (Homo sapiens, UniProt Q92630); assay: DYRK2 kinase assay, IC50 determination; format: biochemical; details: 0.025 mM, 0.1 mM or 2 mM ATP
T1 sequence (Q92630 1-601): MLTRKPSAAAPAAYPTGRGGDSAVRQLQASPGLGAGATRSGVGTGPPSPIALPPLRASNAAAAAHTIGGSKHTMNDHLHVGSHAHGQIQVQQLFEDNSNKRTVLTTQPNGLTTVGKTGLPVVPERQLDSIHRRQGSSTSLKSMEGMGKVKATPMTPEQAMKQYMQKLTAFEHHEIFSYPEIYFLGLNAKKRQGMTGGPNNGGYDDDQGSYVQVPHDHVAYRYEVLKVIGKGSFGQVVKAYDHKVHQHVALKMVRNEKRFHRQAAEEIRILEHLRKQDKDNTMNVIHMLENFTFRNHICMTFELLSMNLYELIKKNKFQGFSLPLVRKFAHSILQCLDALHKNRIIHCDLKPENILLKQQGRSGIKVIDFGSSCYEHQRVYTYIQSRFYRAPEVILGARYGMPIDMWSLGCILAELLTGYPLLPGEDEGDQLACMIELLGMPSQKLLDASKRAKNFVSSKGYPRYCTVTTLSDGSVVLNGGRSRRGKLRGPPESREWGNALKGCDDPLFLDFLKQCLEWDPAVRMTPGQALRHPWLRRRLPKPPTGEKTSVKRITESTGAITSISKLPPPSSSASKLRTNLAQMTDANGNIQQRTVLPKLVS

[4] = molecular target: T2, GSK3β (Homo sapiens, UniProt P49841); assay: GSK3β kinase assay, IC50 determination; format: biochemical
[5] = test system: MDA-MB-231 cells; assay: Cell proliferation by cell counting; format: cell-based; details: 3 µM
[6] = test system: Hs578T cells; assay: Matrigel transwell invasion assay; format: cell-based; details: 5 μM, 24 h
[7] = test system: UBL-YFP-PEST in HEK293T cells; assay: UBL-YFP-PEST reporter degradation; format: cell-based; details: 10 μM, 1 h pretreatment, CHX 2 h
[8] = test system: MDA-MB-231 cells; assay: Matrigel transwell invasion assay; format: cell-based; details: MDA-MB-231, 5 μM, 24 h
[9] = test system: multiple myeloma cell lines; assay: Caspase 3/7 activity; format: cell-based; details: multiple myeloma cell lysates, 16 h
[10] = molecular target: T2, GSK3β; details: read-out: IC50 GSK3β; cited from earlier work
[11] = test system: 5TGM1-GFP cells; assay: Cell proliferation by cell counting; format: cell-based; details: 1 µM, 5 days
[12] = test system: MDA-MB-231 xenograft tumors; assay: MDA-MB-231 tumor xenograft in NSG mice; format: in vivo
[13] = molecular target: T1, DYRK2; assay: pT25 RPT3 phosphorylation in HEK293T cells stably expressing FLAG-DYRK2; format: cell-based
[14] = molecular target: T3, DYRK3 (Homo sapiens, UniProt O43781); assay: DYRK3 kinase assay, IC50 determination
T3 sequence (O43781 1-588): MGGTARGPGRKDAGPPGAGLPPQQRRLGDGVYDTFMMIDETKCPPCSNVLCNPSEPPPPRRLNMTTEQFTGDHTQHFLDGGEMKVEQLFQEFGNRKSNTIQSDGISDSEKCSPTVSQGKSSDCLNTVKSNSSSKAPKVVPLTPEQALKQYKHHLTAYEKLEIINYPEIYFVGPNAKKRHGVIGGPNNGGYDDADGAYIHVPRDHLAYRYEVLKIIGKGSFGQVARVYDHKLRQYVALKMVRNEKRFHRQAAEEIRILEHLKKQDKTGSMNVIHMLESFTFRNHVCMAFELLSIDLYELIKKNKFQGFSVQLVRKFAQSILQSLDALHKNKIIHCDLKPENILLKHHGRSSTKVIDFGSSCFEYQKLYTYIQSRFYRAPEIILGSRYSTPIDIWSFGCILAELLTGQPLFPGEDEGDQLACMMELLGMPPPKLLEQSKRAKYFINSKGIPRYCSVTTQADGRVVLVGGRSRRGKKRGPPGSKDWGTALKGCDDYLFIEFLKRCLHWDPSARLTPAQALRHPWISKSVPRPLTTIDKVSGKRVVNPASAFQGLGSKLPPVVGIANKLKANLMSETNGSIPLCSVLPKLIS

[15] = test system: 26S proteasome in HaCaT cells; assay: Proteasome activity in total cell lysates, Suc-LLVY-AMC; format: cell-based; details: 10 μM, 1 h
[16] = test system: 26S proteasome in MDA-MB-231 cells; assay: as above; format: cell-based; details: 1 h
[17] = test system: 26S proteasome; assay: Affinity-purified 26S proteasome, bodipy-casein degradation in vitro; format: biochemical, human; details: 10 μM

T2 sequence (P49841 whole entry): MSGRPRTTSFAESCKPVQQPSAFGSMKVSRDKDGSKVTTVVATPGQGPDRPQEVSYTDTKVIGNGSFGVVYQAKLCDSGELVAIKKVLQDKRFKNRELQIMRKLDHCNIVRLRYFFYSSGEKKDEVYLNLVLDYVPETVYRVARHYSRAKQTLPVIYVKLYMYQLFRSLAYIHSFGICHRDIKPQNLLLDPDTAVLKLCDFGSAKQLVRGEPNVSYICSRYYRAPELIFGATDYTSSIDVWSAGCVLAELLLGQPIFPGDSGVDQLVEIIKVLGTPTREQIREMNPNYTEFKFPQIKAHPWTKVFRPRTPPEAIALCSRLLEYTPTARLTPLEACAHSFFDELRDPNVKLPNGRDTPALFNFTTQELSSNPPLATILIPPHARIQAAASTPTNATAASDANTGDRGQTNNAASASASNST

CC(C)C[C@H](NC(=O)[C@H](Cc1ccccc1)NC(=O)c1cnccn1)B(O)O [bortezomib]
resistance to bortezomib relative to bortezomib-sensitive cells ([1]; MM.1S.BR vs MM.1S): 20- to 100 fold
resistance to bortezomib relative to bortezomib-sensitive cells ([2]; RPMI8226.BR vs RPMI8226): 20- to 100 fold

COc1cc(/C=C/C(=O)CC(=O)/C=C/c2ccc(O)c(OC)c2)ccc1O [curcumin]
effect of higher concentrations of ATP on the IC50 for DYRK2 [3]: modest effect
IC50 [4]: > 3 µM
cell proliferation in DYRK2 KO cells ([5]; MDA-MB-231 DYRK2 KO): did not exhibit a further decrease in cell proliferation
rate of cell proliferation compared with DMSO-treated controls ([5]; MDA-MB-231 WT, 5 days): markedly slower rate of cell proliferation
cell invasion, 3D matrigel invasion assay [6]: largely blocked
cytotoxicity versus bortezomib-sensitive WT counterpart ([1]; MM.1S.BR, 10 μM, 24 h): comparable cytotoxicity
UBL-YFP-PEST reporter protein degradation [7]: stabilized
cell invasion, 3D matrigel invasion assay [8]: largely blocked
caspase3/7 activity [9]: significant increase
IC50 [10]: 0.066 µM
rate of cell proliferation compared with DMSO-treated controls [11]: markedly slower rate of cell proliferation
Ki-67 staining in xenograft tumors ([12]; 300 mg/kg i.p.): greatly attenuated
tumor burden ([12]; 300 mg/kg i.p. every alternate day, after 2 wk of treatment, NSG mice): significantly reduced tumor burden
reduction of proteasome activity in curcumin-treated mouse tumors ([12]; 300 mg/kg i.p., whole-tumor lysates, Suc-LLVY-AMC): 30%
concentration at which curcumin inhibits DYRK2 in cells [13]: 1 to 10 µM
inhibitor concentration of maximal suppression of pT25 RPT3 phosphorylation ([13]; 0.5 h): 3–10 μM
IC50 [14]: 0.02 µM
proteasome activity with curcumin treatment in DYRK2-null cells ([15]; DYRK2-null HaCaT): no further decrease of proteasome activity
decrease of proteasome activity toward Suc-LLVY-AMC ([15]; HaCaT parental): 25–40%
cytotoxicity versus bortezomib-sensitive WT counterpart ([2]; RPMI8226.BR, 10 μM, 24 h): comparable cytotoxicity
proteasome activity with curcumin treatment in DYRK2-null cells ([16]; DYRK2-null MDA-MB-231, 10 μM): no further decrease of proteasome activity
decrease of proteasome activity toward Suc-LLVY-AMC ([16]; MDA-MB-231 parental, 10 μM): 25–40%
effect on activity of affinity-purified proteasome to degrade BODIPY-casein [17]: no significant effect
